From ChEMBL document CHEMBL1201862, “PubChem BioAssay data set” (2004)
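How tested: cells in 96-well plates exposed to compound for 48 hours at five concentrations. Here, GI50 denotes the concentration required for 50% inhibition of growth.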 Active and inactive are the calls of the source. No stated cut-off is given here; in the data, active = GI50 up to about 1.1 µM and inactive = higher.

How the values were obtained:
Assay in all cases: inhibition of tumour cell growth, NCI panel, 48 h
HCT-15 = system: HCT-15
M14 = system: M14
XF498 = system: XF498
RXF 631 = system: RXF 631
Malme-3M = system: Malme-3M
CCRF-CEM = system: CCRF-CEM
OVCAR-3 = system: OVCAR-3
U-251 = system: U-251
M19-MEL = system: M19-MEL
HOP-62 = system: HOP-62
SK-OV-3 = system: SK-OV-3
COLO 205 = system: COLO 205
SK-MEL-28 = system: SK-MEL-28
RPMI-8226 = system: RPMI-8226
DMS-114 = system: DMS-114
SN12C = system: SN12C
HL-60 = system: HL-60
TK-10 = system: TK-10
NCI-H226 = system: NCI-H226
DMS-273 = system: DMS-273
UACC-62 = system: UACC-62
SNB-75 = system: SNB-75
ACHN = system: ACHN
LOX IMVI = system: LOX IMVI
OVCAR-4 = system: OVCAR-4
SF-539 = system: SF-539
NCI-H460 = system: NCI-H460
UACC-257 = system: UACC-257
MOLT-4 = system: MOLT-4
HCC 2998 = system: HCC 2998
SK-MEL-5 = system: SK-MEL-5
SW-620 = system: SW-620
OVCAR-5 = system: OVCAR-5
NCI-H522 = system: NCI-H522
SK-MEL-2 = system: SK-MEL-2
A549 = system: A549
IGROV-1 = system: IGROV-1
SNB-19 = system: SNB-19
OVCAR-8 = system: OVCAR-8
LXFL 529 = system: LXFL 529
HOP-92 = system: HOP-92
SF-268 = system: SF-268
CAKI-1 = system: CAKI-1
EKVX = system: EKVX
HT-29 = system: HT-29
786-0 = system: 786-0
KM12 = system: KM12
UO-31 = system: UO-31
RXF 393 = system: RXF 393
SF-295 = system: SF-295
K562 = system: K562
A498 = system: A498
HCT-116 = system: HCT-116
SR = system: SR
SNB-78 = system: SNB-78
NCI-H23 = system: NCI-H23
HOP-18 = system: HOP-18
DLD-1 = system: DLD-1
KM-20L2 = system: KM-20L2

With `C=CCC(O)c1cc(OC)ccc1OC` (configuration not stated) the GI50 (HCT-15) was greater than 100 µM, the GI50 (M14) was > 100 µM (inactive) and the GI50 (XF498) was > 100 µM (inactive). For the same molecule, the GI50 (RXF 631) was > 100 µM (inactive), the GI50 (Malme-3M) was > 100 µM (inactive) and the GI50 (CCRF-CEM) was > 100 µM (inactive). The GI50 (OVCAR-3) was > 100 µM (inactive), the GI50 (U-251) was > 100 µM (inactive) and the GI50 (M19-MEL) was > 100 µM (inactive). For the same molecule, the GI50 (HOP-62) was > 100 µM (inactive), the GI50 (SK-OV-3) was > 100 µM (inactive) and the GI50 (COLO 205) was > 100 µM (inactive). For the same molecule, the GI50 (SK-MEL-28) was > 100 µM (inactive), the GI50 (RPMI-8226) was > 100 µM (inactive) and the GI50 (DMS-114) was > 100 µM (inactive). The GI50 (SN12C) was > 100 µM (inactive), the GI50 (HL-60) was > 100 µM (inactive) and the GI50 (TK-10) was > 100 µM (inactive). For the same molecule, the GI50 (NCI-H226) was > 100 µM (inactive), the GI50 (DMS-273) was > 100 µM (inactive) and the GI50 (UACC-62) was > 100 µM (inactive). For the same molecule, the GI50 (SNB-75) was > 100 µM (inactive), the GI50 (ACHN) was > 100 µM (inactive) and the GI50 (LOX IMVI) was > 100 µM (inactive). The GI50 (OVCAR-4) was > 100 µM (inactive), the GI50 (SF-539) was > 100 µM (inactive) and the GI50 (NCI-H460) was > 100 µM (inactive). For the same molecule, the GI50 (UACC-257) was > 100 µM (inactive), the GI50 (MOLT-4) was > 10 µM (inactive) and the GI50 (HCC 2998) was > 100 µM (inactive). The GI50 (SK-MEL-5) was > 100 µM (inactive), the GI50 (SW-620) was > 100 µM (inactive) and the GI50 (OVCAR-5) was > 100 µM (inactive). The GI50 (NCI-H522) was > 100 µM (inactive), the GI50 (SK-MEL-2) was > 100 µM (inactive) and the GI50 (A549) was > 100 µM (inactive). For the same molecule, the GI50 (IGROV-1) was > 100 µM (inactive), the GI50 (SNB-19) was > 100 µM (inactive) and the GI50 (OVCAR-8) was > 100 µM (inactive). The GI50 (LXFL 529) was > 100 µM (inactive), the GI50 (HOP-92) was > 100 µM (inactive) and the GI50 (SF-268) was > 100 µM (inactive). For the same molecule, the GI50 (CAKI-1) was > 100 µM (inactive), the GI50 (EKVX) was > 100 µM (inactive) and the GI50 (HT-29) was > 100 µM (inactive). For the same molecule, the GI50 (786-0) was > 100 µM (inactive), the GI50 (KM12) was > 100 µM (inactive) and the GI50 (UO-31) was > 100 µM (inactive). The GI50 (RXF 393) was > 100 µM (inactive), the GI50 (SF-295) was > 100 µM (inactive) and the GI50 (K562) was > 100 µM (inactive).

`CC1(Cl)CCC2(CC(Br)=CC3OC32C)CC1Br` (configuration not stated) was tested, and the GI50 (A498) was 26.6 µM (inactive), the GI50 (M14) was 43.2 µM (inactive) and the GI50 (RXF 631) was > 10 µM (inactive). For the same molecule, the GI50 (CCRF-CEM) was 18.6 µM (inactive), the GI50 (U-251) was 19 µM (inactive) and the GI50 (M19-MEL) was 32.3 µM (inactive). The GI50 (HOP-62) was 39.4 µM (inactive), the GI50 (SK-OV-3) was 51.8 µM (inactive) and the GI50 (SK-MEL-28) was 23.6 µM (inactive). For the same molecule, the GI50 (DMS-114) was 29.4 µM (inactive), the GI50 (HL-60) was 15.2 µM (inactive) and the GI50 (HCT-116) was 18.2 µM (inactive). The GI50 (TK-10) was 46.6 µM (inactive), the GI50 (NCI-H226) was 23.2 µM (inactive) and the GI50 (SR) was 20.7 µM (inactive). For the same molecule, the GI50 (UACC-62) was 19.2 µM (inactive), the GI50 (NCI-H460) was 27.1 µM (inactive) and the GI50 (UACC-257) was 18.4 µM (inactive). For the same molecule, the GI50 (MOLT-4) was 17 µM (inactive), the GI50 (OVCAR-5) was 79.4 µM (inactive) and the GI50 (NCI-H522) was 23.9 µM (inactive). For the same molecule, the GI50 (A549) was 28.6 µM (inactive), the GI50 (SNB-78) was 12.4 µM (inactive) and the GI50 (IGROV-1) was 42.9 µM (inactive). For the same molecule, the GI50 (SNB-19) was 45 µM (inactive), the GI50 (OVCAR-8) was 30.8 µM (inactive) and the GI50 (HOP-92) was 24.9 µM (inactive). For the same molecule, the GI50 (SF-268) was 19.2 µM (inactive), the GI50 (EKVX) was 52.6 µM (inactive) and the GI50 (HT-29) was 17.9 µM (inactive). The GI50 (KM12) was 32.5 µM (inactive), the GI50 (UO-31) was 28.6 µM (inactive) and the GI50 (RXF 393) was 18.3 µM (inactive). The GI50 (SF-295) was 22.6 µM (inactive) and the GI50 (NCI-H23) was 20.1 µM (inactive).

`O=C(CCN1CCN(c2ccccc2)CC1)N1CCc2c([nH]c3ccccc23)C1c1cccnc1` (configuration not stated) was tested, and the GI50 (HCT-15) was 15.2 µM, the GI50 (A498) was 19.1 µM (inactive) and the GI50 (M14) was 15.8 µM (inactive). For the same molecule, the GI50 (Malme-3M) was 19.1 µM (inactive), the GI50 (CCRF-CEM) was 20.6 µM (inactive) and the GI50 (OVCAR-3) was 16.7 µM (inactive). For the same molecule, the GI50 (U-251) was 16.4 µM (inactive), the GI50 (M19-MEL) was 19.9 µM (inactive) and the GI50 (HOP-62) was 20.8 µM (inactive). For the same molecule, the GI50 (SK-OV-3) was 18.1 µM (inactive), the GI50 (COLO 205) was 13.5 µM (inactive) and the GI50 (SK-MEL-28) was 15.7 µM (inactive). For the same molecule, the GI50 (RPMI-8226) was > 10 µM (inactive), the GI50 (DMS-114) was 13.2 µM (inactive) and the GI50 (SN12C) was 15.2 µM (inactive). For the same molecule, the GI50 (HL-60) was 14.3 µM (inactive), the GI50 (HCT-116) was 14.9 µM (inactive) and the GI50 (TK-10) was 5.81 µM (inactive). The GI50 (NCI-H226) was 25.9 µM (inactive), the GI50 (SR) was 24.7 µM (inactive) and the GI50 (DMS-273) was 17.5 µM (inactive). For the same molecule, the GI50 (HOP-18) was 18.5 µM (inactive), the GI50 (UACC-62) was > 10 µM (inactive) and the GI50 (SNB-75) was 28.8 µM (inactive). For the same molecule, the GI50 (ACHN) was 20 µM (inactive), the GI50 (LOX IMVI) was 16.1 µM (inactive) and the GI50 (OVCAR-4) was 13.6 µM (inactive). For the same molecule, the GI50 (SF-539) was 18.7 µM (inactive), the GI50 (NCI-H460) was 16.6 µM (inactive) and the GI50 (UACC-257) was 15.9 µM (inactive). For the same molecule, the GI50 (MOLT-4) was 12 µM (inactive), the GI50 (HCC 2998) was 21.7 µM (inactive) and the GI50 (SK-MEL-5) was 14.4 µM (inactive). The GI50 (SW-620) was 17.2 µM (inactive), the GI50 (OVCAR-5) was 16.9 µM (inactive) and the GI50 (NCI-H522) was 15.4 µM (inactive). The GI50 (SK-MEL-2) was 16.3 µM (inactive), the GI50 (A549) was 14.8 µM (inactive) and the GI50 (SNB-78) was 16.1 µM (inactive). The GI50 (IGROV-1) was 39.7 µM (inactive), the GI50 (SNB-19) was 23.3 µM (inactive) and the GI50 (OVCAR-8) was 16.6 µM (inactive). For the same molecule, the GI50 (LXFL 529) was 16.3 µM (inactive), the GI50 (HOP-92) was 18.5 µM (inactive) and the GI50 (CAKI-1) was 18.1 µM (inactive). For the same molecule, the GI50 (EKVX) was 16.9 µM (inactive), the GI50 (HT-29) was 15 µM (inactive) and the GI50 (786-0) was 15.4 µM (inactive). For the same molecule, the GI50 (KM12) was 18 µM (inactive), the GI50 (UO-31) was 11.5 µM (inactive) and the GI50 (RXF 393) was 24.6 µM (inactive). For the same molecule, the GI50 (DLD-1) was 18.4 µM (inactive), the GI50 (SF-295) was > 10 µM (inactive) and the GI50 (K562) was 15.9 µM (inactive). For the same molecule, the GI50 (NCI-H23) was 21 µM (inactive) and the GI50 (KM-20L2) was 15.9 µM (inactive).
